Consider 1 compound from patent US20220259536A1, “MICROCHANNEL CELL CULTURE DEVICE AND SYSTEM” (THE CHARLES STARK DRAPER LABORATORY, INC., priority 2021, published 2022).

The assay has as its system Human renal proximal tubule cells. Put plainly: optical label-free measurement of cell oxygen consumption in multi-well microfluidic tissue culture device. The assay is classed as cell-based. As to conditions: human renal proximal tubule cells treated with Oligomycin; static conditions after turning off pumps; FIG. 15B, varying drug concentrations. From the text:
An optical luminescence-based oxygen sensing system was integrated with an existing multi-well microfluidic tissue culture device, for label-free oxygen monitoring (FIG. 13). Sensor spots having a diameter of 0.75 mm were cut with a biopsy punch from a sheet of photosensitive film (PyroScience) and bonded with 184 Sylgard silicone adhesive to the center floor of each basal channel. The photosensitive sensor spot was located about 200 μm from the tissue layer on the surface of bottom channel. A FireStingO2 optical oxygen meter (PyroScience) with a 2 m fiber optic cable (external to channel) was used to monitor oxygen in each device. For oxygen measurements, the device was placed in an incubated confocal microscope (Zeiss Inc., Oberkochen, Germany) and the fiber optic was secured below the microscope stage. The stage was programmed to align the fiber optic with each sensor for oxygen monitoring in all 96 tissue modeling environments. A 2-point calibration of the FireStingO2 system was performed using devices filled with air saturated PBS and a 0% oxygen solution (30 g/L sodium sulfite in water). […] Tissue oxygen consumption was measured for the human renal proximal tubule cells by cycling the pumps carrying oxygen rich fluid on and off (FIG. 14). As shown in the graph of FIG. 14, under static conditions, cell oxygen consumption was measured immediately upon turning off fluid pumps.

`CC[C@H]1/C=C/C=C/C[C@@H](C)[C@H](O)[C@@](C)(O)C(=O)[C@@H](C)[C@H](O)[C@@H](C)C(=O)[C@@H](C)[C@H](O)[C@@H](C)/C=C/C(=O)O[C@@H]2[C@H](C)[C@H](CC1)O[C@]1(CC[C@H](C)[C@H](C[C@@H](C)O)O1)[C@H]2C` [Oligomycin]: the “cell oxygen consumption rate” value is “significant decrease”.
